Data as given in patent US8999296B2, “Method of detecting bladder cancer” (Kochi University, priority 2008, dated 2015).

Key:
bladder cancer [1] = experiment: Fluorescence diagnosis in bladder cancer patients grouped by disease stage (pTis, pTa, pT1, pT2, pT3), Example 2; type: in vivo, human; conditions: 50 bladder cancer patients, stages pTis, dosing as in Example 1
Description: ALA was injected into the bladder or administered orally similarly to Example 1 to bladder cancer patients who had been grouped according to the disease stages based on the intramural invasion depth of the primary tumor: 6 cases of pTis (intraepithelial cancer), 27 cases of pTa (without invasion), 9 cases of pT1 (with invasion to submucosal connective tissue), 6 cases of pT2 (with muscle invasion), 2 cases of pT3 (with invasion to pericystic adipose tissue) (50 cases for total number of patients). […] This confirmed that oral administration is effective in a diagnosis method for bladder cancer at every disease stage.

bladder cancer [2] = experiment: Intraoperative photodynamic diagnosis of bladder cancer with ALA-HCl (video camera system and VLD-M1 fluorescence intensity), Example 1; type: in vivo, human; conditions: for Fluorescence intensity (relative intensity) by VLD-M1: irradiation at 405 nm, PpIX fluorescence at 635 nm, one subject
Description: Intraoperative diagnosis using 5-aminolevulinic acid hydrochloride (ALA-HCl) was carried out for two subjects who are in the almost same progression stage of bladder cancer. The subjects were administered ALA-HCl respectively by bladder instillation and by oral intake. Bladder instillation was conducted on the day of operation by dissolving 1.5 g of ALA-HCl in 50 mL of a 8.4% sodium bicarbonate (sodium hydrogen carbonate: NaHCO3) to adjust pH (median pH of 8.0 (pH 7.8-8.2)), filtrating the dissolved ALA-HCl solution with a 0.22 μm filter, and then injecting this dissolved solution (50 mL) into the bladder of a subject. Retention time in the bladder was set for 120-150 min ([…]) and ALA was eliminated just prior to the operation. On the other hand, oral intake was carried out by dissolving ALA (maximum of 1 g) in 50 mL of a 5% dextrose solution to 20 mg/kg, and the ALA dissolved solution (50 mL) was orally administered to the other subject in the morning (4 hours before commencement of the operation) without giving breakfast. Diagnosis was conducted based on the diagnostic imaging and fluorescent intensity with the use of a video camera system: Endovision TELECAM SL/IPM-PPDSystem (KARL STORZ) and VLD-M1 (M&M). The video camera system was inserted via the urethra and the red light part was observed after irradiating a blue fluorescence at 380-440 nm. Further, VLD-M1 was inserted and fluorescence intensity (relative intensity) at the red light part was observed after irradiating a blue fluorescence at 405 nm.
In addition, at 635 nm which is the […] for protoporphyrin IX (PpIX), it was confirmed as shown in Table 1 that the fluorescence intensity was higher in the case of oral intake than in the case of bladder instillation.

`Cl.NCC(=O)CCC(=O)O` [ALA, 5-aminolevulinic acid hydrochloride] was tested. Which “Fluorescence, oral administration versus injection into the bladder (FIGS. 3-6)” value (bladder cancer [1]) did it give?
The value was “fluorescence was more intensive when ALA was orally administered than when injected into the bladder”.

What about the “Fluorescence intensity (relative intensity) by VLD-M1” value (bladder cancer [2]; bladder instillation of ALA (1.5 g ALA-HCl in 50 mL 8.4% NaHCO3)) of the same molecule?
The value was 20153.

What about the “Fluorescence intensity (relative intensity) by VLD-M1” value (bladder cancer [2]; oral intake of ALA (20 mg/kg, 4 hours before operation)) of the same molecule?
The value was 48623.

And the “Identification of the site of bladder cancer by diagnostic imaging (FIGS. 1 and 2)” value (bladder cancer [2]; oral intake versus bladder instillation, irradiation at 380-440 nm, red light part observed)?
The value was “more remarkably identified in the case of oral intake than in the case of bladder instillation”.
